Each structure is given as a SMILES string. Where two headings read alike, the source gives them in different places.

Data set [1] relates to peripheral lymphocyte counts. Briefly: Phase 1 studies taken together (safety, tolerability, lymphocyte counts). Format: in vivo, human. As to the method: Compound 1, or a pharmaceutically acceptable salt, solvate, or hydrate thereof, is an orally administered, selective, synthetic sphingosine 1-phosphate (S1P) receptor 1, 4, 5 modulator. […] Its safety and tolerability have been evaluated in Phase 1 studies with healthy adult subjects at single doses up to 5 mg and repeated doses up to 4 mg once daily (“QD” or “qd”). […] In another Phase 1 study, 30 adult subjects received 2 mg of Compound 1 qd (Days 1 to 7), then 3 mg of Compound 1 qd (Days 8 to 12), and finally 4 mg of Compound 1 qd (Days 13 to 14). […] After treatment with Compound 1, lymphocyte reductions of 46% and 65% for Day 8 and Day 15, respectively, were observed.

Data set [2] concerns UC patients. Briefly: Phase 2 dose-ranging study in UC patients. Type of data set: in vivo, human. An excerpt: Further, while UC and CD have overlapping features, there are differences in pathophysiology, disease location, and extent of disease that may dictate different doses for the treatment of UC and CD. Described herein is the elucidation of safe and efficacious dosing of Compound 1 for the treatment of CD.
(§1) Compound 1, or a pharmaceutically acceptable salt, solvate, or hydrate thereof, is an orally administered, selective, synthetic sphingosine 1-phosphate (S1P) receptor 1, 4, 5 modulator. […] Its safety and tolerability have been evaluated in Phase 1 studies with healthy adult subjects at single doses up to 5 mg and repeated doses up to 4 mg once daily (“QD” or “qd”).

The subject of data set [3] is peripheral blood lymphocytes. Put plainly: Phase 1, single ascending dose clinical trial in healthy subjects. Type of data set: in vivo, human.
Data set [4] concerns UC patients. Put plainly: Open-label extension study after the Phase 2 UC study. The following applies: up to 46 weeks. Format: in vivo, human. As to the method: as §1
In data set [5] the test system is peripheral lymphocyte counts. Briefly: Phase 1, multiple ascending dose clinical trial in healthy subjects. Format: in vivo, human. From the text: […] […] After treatment with Compound 1, lymphocyte reductions of 46% and 65% for Day 8 and Day 15, respectively, were observed.
The test system of a further data set is lymphocyte. Format: in vivo, human. The protocol: In another Phase 1 study, 30 adult subjects received 2 mg of Compound 1 qd (Days 1 to 7), then 3 mg of Compound 1 qd (Days 8 to 12), and finally 4 mg of Compound 1 qd (Days 13 to 14). […] After treatment with Compound 1, lymphocyte reductions of 46% and 65% for Day 8 and Day 15, respectively, were observed.

A further data set has as its system subjects with CD. The following applies: Phase 2; cited from earlier work.

On to `O=C(O)C[C@H]1CCc2c1[nH]c1ccc(OCc3ccc(C4CCCC4)c(C(F)(F)F)c3)cc21` [Compound 1, (R)-2-(7-(4-cyclopentyl-3-(trifluoromethyl)benzyloxy) -1,2,3,4-tetrahydrocyclopenta[b]indol-3-yl)acetic acid], for which the “reductions in peripheral lymphocyte counts” value in data set [1] (Phase 1 studies together, 2 mg and 3 mg) is recorded as “significant reductions”. The tolerability and safety entry in data set [1] (Phase 1 studies together, doses up to 4 mg) was “well-tolerated with no significant safety findings”. Besides, the safety and tolerability result in data set [1] (adult subjects treated at various doses, Phase 1 single doses up to 5 mg, repeated doses up to 4 mg once daily) is “safe and well-tolerated”; in data set [5] (up to 21 days of dosing with 2 mg or 3 mg) it was “safe and well-tolerated”. Also, the “endoscopic and symptomatic improvements versus placebo” value with UC patients [2] (UC patients, 2 mg QD for 12 weeks) was “clinically meaningful and statistically significant endoscopic and symptomatic improvements”. Besides, in the data set with UC patients [2] (subjects with UC, 2 mg), the efficacy over placebo result is reported as “improved efficacy”. Moreover, the “decline in the absolute number of peripheral blood lymphocytes” value in data set [3] (single 3 mg and 5 mg doses) is given as “clear dose-responsive decline”. Further, the “declines in peripheral blood lymphocytes” value in data set [3] (single doses up to 1 mg) was “only modest declines”. For the same compound, in the data set on UC patients [4], the “beneficial effects in open-label extension” value is given as “Sustained beneficial effects”. Besides, in data set [5] (up to 21 days of dosing, 2 mg and 3 mg), the peripheral lymphocyte counts entry was “reduced peripheral lymphocyte counts”. In addition, the lymphocyte reductions in the data set with lymphocyte (Day 8 (after 2 mg qd Days 1 to 7)) was 46%; with lymphocyte (Day 15 (after 2 mg Days 1 to 7, 3 mg Days 8 to 12, 4 mg Days 13 to 14)), 65%.
Turning to `CCCCCCCOc1ccc(CCC(N)(CO)CO)cc1C(F)(F)F` [amiselimod], in the data set on subjects with CD, the efficacy over placebo entry is reported as “did not result in improved efficacy over placebo”.
